Source: PMC3481155, “AhR activation underlies the CYP1A autoinduction by A-998679 in rats” (Frontiers in Genetics, 2012)

Key:
AhR gene battery = assay: Rat liver mRNA profiling of the AhR gene battery; format: in vivo; settings: 5 days
Protocol: (§1) All animal experiments were conducted in accordance with the Guiding Principles in the Use of Animals in Toxicology (http://www.toxicology.org/ai/air/air6.asp) and were approved by Abbott's Institutional Animal Care and Use Committee (IACUC). Male Sprague-Dawley rats [Crl:CD®(SD)IGS BR], weighing ~250 g at study initiation were obtained from Charles River Laboratories, Inc. (Wilmington, MA). Rats were housed singly in ventilated, stainless steel, wire-bottom hanging cages and fed non-certified Rodent Chow (Harlan Labs, Madison, WI), and water ad libitum and acclimated for at least 5 days after arrival. […] Serum clinical chemistry parameters were quantified using an Aeroset Clinical Chemistry Analyzer (Abbott Laboratories, Abbott Park, IL) and included alanine amino transferase (ALT), aspartate amino transferase (AST), gamma glutamyltransferase (GGT), and alkaline phosphatase (ALP) activities.
(§2) Frozen liver or jejunum were immediately added to 4 ml of TRIzol reagent (Invitrogen Life Technologies) and homogenized using a Polytron 300D homogenizer (Brinkman Instruments, Westbury, NY). […] Nucleic acid concentration was determined by OD 260 nm (Smart-Spec, Bio-Rad Laboratories, Hercules, CA), and RNA integrity was evaluated using an Agilent 2100 bioanalyzer (Agilent Technologies, Foster City, CA). […]

CYP1A2 [1] = assay: CYP1A2 mRNA induction in primary dog hepatocytes; format: cell-based; settings: 10 μM, 48 h, data not shown
Protocol: Rat hepatocytes were isolated in a perfusion procedure as described previously (Elliget and Kolaja, [1983]; Waring et al., [2001]). The beagle dog hepatocytes were isolated in the same manner, except for adjustment of flow rate and buffer volume to scale to liver size. Cells were plated at a seeding density of 1.0 × 10^6 cells per well on 6-well, collagen-type I coated plates (BD Biosciences, Bedford, MA) in hepatocyte plating medium (Celsis, Baltimore, MD). Cells were allowed to attach for 24 h in a 37°C humidified incubator with a 5% CO2 atmosphere and were dosed for 24 h (rat) or 48 h (dog) with vehicle control [0.1% DMSO (v/v)] or 10 μM A-998679 in fresh treatment media (Celsis hepatocyte incubation media) every 24 h. After the last incubation, cells were lysed in 1 ml of Qiazol (Qiagen) and stored at −80°C until RNA isolation. Cryopreserved human hepatocytes (donor designation Hu4198; Invitrogen Life Technologies, Carlsbad, CA) were thawed and plated according to the manufacturer's protocol and allowed to incubate for 24 h. […]
RNA samples were diluted with RNase-free molecular biology grade water to a concentration of 20 ng/μl total RNA. […] Results were analyzed by calculating the fold change of CYP1A1 and/or CYP1A2 mRNA levels normalized to 28S rRNA (ΔΔ Ct) in compound treated cells or tissues compared to vehicle levels. […]

Cyp1a2 [2] = assay: Cyp1a2 mRNA in rat small intestine (jejunum); format: in vivo; settings: data not shown
Protocol: as §1, §2

Cyp1a2 [3] = assay: Cyp1a2 mRNA in rat liver after 5 days of dosing (microarray, RT-PCR); format: in vivo
Protocol: as §1, §2

CYP1A2 mRNA induction (CYP1A2 [1]): also observed | Cyp1a2 mRNA levels in rat jejunum (Cyp1a2 [2]): unchanged | Cyp1a2 mRNA increase in rat liver (microarray) (Cyp1a2 [3]; 5 days of dosing, in at least one animal starting at the 100 mg/kg dose): 2–3 fold | Cyp1a2 mRNA expression in rat liver (RT-PCR) (Cyp1a2 [3]; 5 days, all doses (30, 100, 200 mg/kg/day)): strongly induced
Structure (SMILES): N#Cc1cccc(-c2noc(-c3cccnc3)n2)c1 [A-998679, 3-(5-pyridin-3-yl-1,2,4-oxadiazol-3-yl) benzonitrile]
expression of members of the AhR gene battery (Gst isoforms, Nqo1, Aldh, AhR) in rat liver (AhR gene battery): upregulated
